Results on 19 molecules are retold here after article PMC8333062, “Chemical tools for epichaperome-mediated interactome dysfunctions of the central nervous system” (Nature Communications, 2021).

The nature of one data set: in vitro. Particulars: PAMPA, pH 7.4.
The nature of another data set: PAMPA-BBB permeability. Particulars: for PAMPA_BBB: Supplementary Table 6; for Papp at 16 h, 50 μM: pig, PAMPA, pH 7.4.
In data set [1] the target is HSP90 pools in JNPL3 (AD transgenic) mouse brain lysate. Kind of data set: Fluorescence polarization (FP) competitive binding, cy3B-GM. Particulars: read-out: FP relative affinity.
For data set [2] the following is noted: 10 µM PU-HZ151, 60 min.
Description: PU-HZ151 (1 and 10 µM) was incubated with human, CD-1 mouse, Sprague Dawley rat, and beagle dog liver microsomes (0.5 mg protein/ml) and appropriate cofactors (2.5 mM NADPH and 3.3 mM MgCl2) in 100 mM phosphate buffer, pH 7.4, in a 37 °C shaking water bath. The incubation contained a final organic solvent concentration of 0.1% DMSO. Reactions were started with the addition of NADPH/magnesium chloride mix and stopped by removing 100 µL aliquots at selected time points (15, 30, and 60 min) and mixing with 200 µl of acetonitrile containing 100 ng/ml haloperidol (internal standard). […] Experimental controls consisted of: a) incubation with 1 or 5 µM propranolol as a positive control for metabolism, and b) incubation of 1 and 10 µM PU-HZ151 with heat-inactivated microsomes (0.5 mg protein mL^−1) for 0 and 60 min. All samples were assayed in duplicate. To determine metabolic stability of PU-HZ151, the percent remaining at each time point was calculated by dividing the peak area ratio of PU-HZ151 /internal standard at each time point by the mean peak area ratio at 0 min, multiplied by 100.
In order to detect and characterize metabolites of PU-HZ151 formed in selected microsomal incubation samples, the following procedures were used to prepare the samples: (1) microsomal incubation samples generated in the metabolic stability experiments (1 and 10 µM PU-HZ151, duplicate replicates per timepoint) were initially processed by addition of 2 parts acetonitrile containing the internal standard haloperidol, to 1 part sample, followed by vortexing, centrifugation, and transfer of the supernatant to a 1.5 mL microcentrifuge tube. Samples were stored at −80 °C prior to analysis for metabolites. (2) Samples were thawed to room temperature, vortexed, centrifuged, and a volume of the supernatant diluted 1:1 with 5% acetonitrile, to reduce the percent acetonitrile in the final sample. Samples were then transferred to HPLC vials with glass inserts for subsequent LC-MS analysis.
Samples were analyzed by LC-MS using positive-ion electrospray ionization and reverse-phase chromatography in full-scan mode with MS/MS product-ion spectra generated for detected metabolite masses. This was performed using the MS2 scan mode of the G6410B mass spectrometer to produce MS/MS product-ion spectra for masses detected at sufficient intensities. Chromatography was performed using a ZORBAX Eclipse XDB-C18 4.6 × 50 mm, 5 µm, column, with gradient elution at 1 mL min^−1. Mobile phase was comprised of A = MilliQ Water with 0.1% formic acid, B = acetonitrile.
The nature of data set [3]: Pharmacokinetic studies in mice (LC-MS/MS). In kind it is in vivo, B6D2F1 mice. Set-up: Plasma level: unit: uM. Particulars: individual animals. As for the experimental part: Blood and brain tissue were collected following euthanasia at the scheduled time points of 5, 30 min, 1, 4, and 8 h following iv dosing and of 30 min, 1, 4, and 8 h following po dosing. Brain samples were immediately flash frozen in liquid nitrogen following collection and stored at −80 °C until analysis. Blood samples were collected into an EDTA tube by heart puncture and centrifuged at 17,000×g for 5 min at 4 °C to separate the plasma and immediately frozen on dry ice and stored at −80 °C until analysis. […] This was homogenized, extracted with methylene chloride, and evaporated on a GeneVac. […] Drug concentration (μM) in the brain was then modified to account for an average water space of 0.8 mL g^−1.

The conditions of data set [4]: for PAMPA_BBB: PAMPA; for PAMPA-BBB: pH 7.4.
The mark [5] stands for this setting: displacement of cy3B-GM, 24 h, 4 °C, mean±SD, n=3.

Molecules are shown by their SMILES. “And” between values parts separate entries of the source, which are not always exact repeats. Identical values can stand only once. Like-named read-outs stand apart in the source and are kept apart here.

With `CC(C)NCCCn1c(Sc2cc3c(cc2I)OCCO3)nc2c(N)ncnc21` [Compound 28], the Papp at 16 h, 50 μM in the data set “in vitro” was 6.6 ± 0.6 ×10⁻⁶ cm/s. In “PAMPA-BBB permeability”, the PAMPA_BBB is 6.6±0.6. For the same molecule, the EC50 in data set [1] (setting [5]) was 34.5 ± 1.7 nM.

In “in vitro”, `Nc1ncnc2c1nc(Sc1cc3c(cc1I)OCC3)n2CCCBr` [Compound 40] came in with a Papp at 16 h, 50 μM of 7.7 ± 0.8 ×10⁻⁶ cm/s. Further, in “PAMPA-BBB permeability”, the PAMPA_BBB was determined as 7.7±0.8. Also, in data set [1] (setting [5]), the EC50 is 8 ± 0.4 nM.

For the molecule `C[N+](C)(C)CCCn1c(Cc2cc3c(cc2I)OCO3)nc2c(N)nc(F)nc21` [Compound 72], in the data set “PAMPA-BBB permeability”, the PAMPA_BBB stood at 1.3±0.1. For the same molecule, the EC50 in data set [1] (setting [5]) amounted to 155 ± 5 nM.

On to `CC(C)NCCCn1c(Sc2cc3c(cc2I)CCC3)nc2c(N)ncnc21` [Compound 53], for which, in “PAMPA-BBB permeability”, the PAMPA_BBB turned out to be 15.1±0.7 and the Papp at 16 h, 50 μM was determined as 15.1 ×10⁻⁶ cm/s. Besides, in data set [1] (setting [5]), the EC50 turned out to be 4.5 ± 0.5 nM.

For the molecule `NCCn1c(Sc2cc3c(cc2I)OCO3)nc2c(N)ncnc21` [Compound M1], the “% Peak area of metabolite” value was 53.0% in data set [2] (replicate 1) and 59.1% in data set [2] (replicate 2). Also, the Brain level in data set [3] (time 5 min), in data set [3] (time 0.5 h), in data set [3] (time 1 h), in data set [3] (time 4 h) and in data set [3] (time 8 h) was 0 throughout. The Plasma level in data set [3] (time 5 min), in data set [3] (time 0.5 h), in data set [3] (time 1 h), in data set [3] (time 4 h) and in data set [3] (time 8 h) was 0 each time.

In “in vitro”, `CCc1cc2c(cc1Cc1nc3c(N)nc(F)nc3n1CCCNC(C)C)OCO2` [Compound 21] gave a Papp at 16 h, 50 μM of 5.9 ± 0.6 ×10⁻⁶ cm/s. The PAMPA_BBB in the data set “PAMPA-BBB permeability” was 5.9±0.6. The EC50 in data set [1] (setting [5]) amounted to 813 ± 56 nM.

In the case of `NCCn1c(Sc2cc(O)c(O)cc2I)nc2c(N)ncnc21` [Compound M5], the “% Peak area of metabolite” value in data set [2] (replicate 1) came out at 2.5%; in data set [2] (replicate 2) it was 2.9%.

`C#CCN(C)CCCn1c(Cc2cc3c(cc2I)OCO3)nc2c(N)nc(F)nc21` [Compound 64]: in the data set “PAMPA-BBB permeability”, the PAMPA_BBB was 11.1±0.1 and the Papp at 16 h, 50 μM amounted to 11.1 ×10⁻⁶ cm/s. For the same molecule, in data set [1] (setting [5]), the EC50 came to 30 ± 6 nM.

In turn, `C=Cc1cc2c(cc1Cc1nc3c(N)nc(F)nc3n1CCCNC(C)C)OCO2` [Compound 22] gave a Papp at 16 h, 50 μM in the data set “in vitro” of 5.6 ± 0.2 ×10⁻⁶ cm/s. The molecule further had a PAMPA_BBB in the data set “PAMPA-BBB permeability” of 5.6±0.2. The EC50 in data set [1] (setting [5]) amounted to 146 ± 9 nM.

As to `CC(C)NCCCn1c(Sc2cc3ccccc3cc2I)nc2c(N)ncnc21` [Compound 58], in data set [4], the PAMPA_BBB is listed as 10.8±0.2 and the PAMPA-BBB was 10.8±0.2 10-6 cms-1. Moreover, in data set [1] (setting [5]), the EC50 was found to be 97 ± 3 nM.

`CCN(C)CCCn1c(Cc2cc3c(cc2I)OCO3)nc2c(N)nc(F)nc21` [Compound 62]: in data set [4], the PAMPA_BBB stood at 7.5±0.1 and the PAMPA-BBB is on record as 7.5±0.1 10-6 cms-1. Further, in data set [1] (setting [5]), the EC50 was 45 ± 19 nM.

On to `Nc1nc(F)nc2c1nc(Cc1cc3c(cc1I)OCO3)n2CCCN(CCO)C1CCCCC1` [Compound 70], for which, in data set [4], the PAMPA_BBB was 8.5±0.1 and the PAMPA-BBB is on record as 8.5±0.1 10-6 cms-1. Besides, the EC50 in data set [1] (setting [5]) is 24 ± 2 nM.

Turning to `CC(C)(C)CNCCn1c(Sc2cc(O)c(O)cc2I)nc2c(N)ncnc21` [Compound M2], the “% Peak area of metabolite” value was found to be 13.0% in data set [2] (replicate 1) and 9.0% in data set [2] (replicate 2). In addition, the Brain level was 0 (3×) and 0.75 and 0.71 in data set [3] (time 5 min); 0.02 and 0.49 and 0 (2×) in data set [3] (time 0.5 h); 0 (3×) and 0.04 in data set [3] (time 1 h); 0 in data set [3] (time 4 h); 0 in data set [3] (time 8 h). Further, the Plasma level is 0.04 and 0 (4×) in data set [3] (time 5 min); 0.02 and 0 (3×) in data set [3] (time 0.5 h); 0 (3×) and 0.03 in data set [3] (time 1 h); 0 in data set [3] (time 4 h); 0 in data set [3] (time 8 h).

On to `CC1CN1CCCn1c(Cc2cc3c(cc2I)OCO3)nc2c(N)nc(F)nc21` (stereo not shown) [Compound 66], for which, in data set [4], the PAMPA_BBB amounted to 5.8±1.5 and the PAMPA-BBB is recorded as 5.8±1.5 10-6 cms-1. Also, the EC50 in data set [1] was 105 ± 5 nM.

As for `C=CCc1cc2c(cc1Sc1nc3c(N)ncnc3n1CCCNC(C)C)OCO2` [Compound 8], in data set [4], the PAMPA_BBB turned out to be 6.7±0.7 and the PAMPA-BBB was 6.7±0.7 10-6 cms-1. Further, the EC50 in data set [1] (setting [5]) came out at 122 ± 4 nM.

Take `CC(C)(C)NCCCn1c(Cc2cc3c(cc2I)OCO3)nc2c(N)nc(F)nc21` [Compound 59]: in “PAMPA-BBB permeability”, the PAMPA_BBB amounted to 13.3±1.4 and the Papp at 16 h, 50 μM came out at 13.3 ×10⁻⁶ cm/s. The EC50 in data set [1] (setting [5]) was 12.7 ± 1.6 nM.

In the case of `CC(C)NCCCn1c(Sc2cc3c(cc2-c2ccc(Br)cc2)OCO3)nc2c(N)ncnc21` [Compound 10], the Papp at 16 h, 50 μM in the data set “in vitro” amounted to 11.5 ± 0.4 ×10⁻⁶ cm/s. Also, the PAMPA_BBB in “PAMPA-BBB permeability” was determined as 11.5±0.4. The EC50 in data set [1] (setting [5]) was determined as 732 ± 13 nM.

With `Nc1nc(F)nc2c1nc(Cc1cc3c(cc1I)OCO3)n2CCCN1CCCCC1` [Compound 67], in the data set “in vitro”, the Papp at 16 h, 50 μM came to 6.9 ± 0.2 ×10⁻⁶ cm/s. The PAMPA_BBB in “PAMPA-BBB permeability” is listed as 6.9±0.2. In data set [1] (setting [5]), the EC50 stood at 112 ± 6 nM.

`C=CCc1cc2c(cc1Cc1nc3c(N)nc(F)nc3n1CCCNC(C)C)OCO2` [Compound 23] gave a Papp at 16 h, 50 μM in the data set “in vitro” of 4.6 ± 0.6 ×10⁻⁶ cm/s. This molecule also gave a PAMPA_BBB in “PAMPA-BBB permeability” of 4.6±0.6. Further, in data set [1] (setting [5]), the EC50 is greater than 5000 nM.
